Reference: patent publication US8951529B2, “Methods of using small compounds to enhance myeloid derived suppressor cell function for treating autoimmune diseases” (Icahn School of Medicine at Mount Sinai, priority 2009, dated 2015)

Key:
IBD = conditions: GA alone, clinical studies discontinued; cited from earlier work
[1] = test system: CD4+ HA-TCR transgenic splenocytes co-cultured with MDSCs; assay: IL-17A production by HA-stimulated splenocytes co-cultured with MDSCs (ELISA); format: cell-based, mouse; conditions: splenocytes:MDSCs 3:1, HA peptide, five days, FIG. 3B
Experimental: Because IL-23 (p40/p19) is essential for the Th17 response, the effects of MDSCs, in the presence of GA, SP600125, or both, on IL-17A expression by CD4+ HA-TCR transgenic splenocytes stimulated with HA peptides was determined. Splenocytes from CD4+ HA-TCR transgenic mice were co-cultured with irradiated MDSCs at the ratio of 3:1 in the presence of HA peptide and SP600125, GA, or a combination of both. Five days later, the culture supernatants were collected for the determination of IL-17A concentration by ELISA.

DSS-induced colitis = DSS-induced colitis in vivo model; set-up: species or system C57BL/6 mice
Text: In certain aspects, the invention is related to the treatment of IBDs. Mouse models of IBD are well known in the art, and may be used to model human IBDs. For example, dextran sodium sulfate (DSS) may be administered to mice to induce IBD. In this model, mice are fed with water containing 3.5% DSS from day 0 to day 11. Following treatment, mice develop colitis. The severity of colitis is quantified (assigned a clinical score) by assessing stool consistency, bleeding, and weight loss, which ranges from 0 (healthy) to 4 (maximal severity). Histologically, DSS produces submucosal erosions, ulceration, inflammatory cell infiltration and crypt abscess as well as epithelioglandular hyperplasia. […] [Kawada et al., 2007, World J. Gastroenterol. 13: 5581-5593; Okayasu et al., 1990, Gastroenterology 98:694-702]
For adoptive transfer of MDSCs, 5×10^6 purified MDSCs suspended in PBS were administered by intravenous infusion at day 0 and day 7.
Mice were left untreated or treated with sorted MDSCs (5×10^6 cells/mouse) alone or in combination with GA and/or SP600125 (Sigma-Aldrich), on the day of disease induction. […] The severity of colitis was quantitated as a clinical score by assessing stool consistency, bleeding, and weight loss, which ranges from 0 (healthy) to 4 (maximal severity). The clinical score (weight loss, stool consistency, and bleeding) of treated mice was assessed in a double-blind fashion.
On day 11 post-IBD induction, colon tissues from treated mice were removed, fixed in 3% formaldehyde, sectioned, and stained with H&E staining to determine the pathology score of colitis. To reflect the general condition of the mice, a disease activity index (DAI) was determined by an investigator blinded to the protocol by scoring the extent of body weight loss, stool guaiac positivity or gross bleeding, and stool consistency according to the method described in Murthy et al. (1993) “Treatment of Dextran Sulfate Sodium-Induced Murine Colitis by Intracolonic Cyclosporin,” Digest. […] Stool consistency and the degree of blood in stool were evaluated on the day when animals were killed. […]

[2] = test system: TLR 2, 3, and 4 expression in MDSCs; conditions: microarray analysis
Text: Five days later, cells were harvested and stained with anti-CD4-FITC+anti-CD25-APC+anti-Foxp3-PE or isotype controls followed by flow cytometry.

L-glutamic acid polymer with L-alanine, L-lysine and L-tyrosine, acetate (salt) [GA]
efficacy for treating IBD (IBD): failed to treat IBD
IL-17A production [1]: decreased
decrease in colonic length (DSS-induced colitis; day 11, in comparison with naive healthy mice, FIG. 5C): 45%
IBD clinical score (DSS-induced colitis; scale 0-4, 3.5% DSS day 0 to 11, GA s.c., SP600125 i.p. daily, MDSCs 5×10^6 i.v. days 0 and 7, FIG. 5A): did not significantly lower
levels of TLR 2, 3, and 4 expression in MDSCs [2]: significant reduction
